Assay results reported in publication PMC8949187, “Study of Structure–Activity Relationships of the Marine Alkaloid Fascaplysin and Its Derivatives as Potent Anticancer Agents” (Marine Drugs, 2022).

Legend:
DU145 cells = assay: MTT assay, DU145 cells; type: cell-based, human; conditions: prostate cancer cells, 48 h of treatment, mean ± SD
Method: (§1) The human prostate cancer cell lines PC-3, DU145, 22Rv1 and LNCaP, as well as human prostate non-cancer cell line PNT2 were purchased from ATCC (Manassas, VA, USA). HEK 293T (human embryonic kidney cells) and MRC-9 (human fibroblast cells) cell lines were purchased from ECACC (Salisbury, UK). […] Authentication of all cell lines used was recently performed by a commercial service (Multiplexion GmbH, Heidelberg, Germany).
(§2) Cells were cultured as monolayers at 37 °C in a humidified atmosphere with 5% (v/v) CO2 in the correspondent culture medium: 10% FBS/RPMI medium (RPMI medium supplemented with Glutamax^TM-I (gibco® Life technologies^TM, Paisley, UK) containing 10% fetal bovine serum (FBS, gibco® Life technologies^TM) and 1% penicillin/streptomycin (Invitrogen)) for PNT2, LNCaP, 22Rv1, PC-3 and DU145 and cells; 10% FBS/DMEM medium (DMEM medium supplemented with Glutamax^TM-I (gibco® Life technologies^TM) containing 10% FBS and 1% penicillin/streptomycin (gibco® Life technologies^TM)) for MRC-9 and HEK 293 cells. Cells were continuously kept in culture for a maximum of 3 months, and were regularly checked for stable phenotype and mycoplasma infection.
(§3) Effect of the drugs on cell viability in terms of metabolic activity was assessed by MTT assay, as previously reported. Cells were pre-incubated overnight in 96-well plates (6 × 10^3 cells/well in 100 μL/well) in the correspondent culture media. Then, the medium was replaced with fresh 10% FBS/RPMI medium containing the investigated compounds (100 μL/well), and cells were incubated for 48 h, unless otherwise stated. Next, 10 μL/well of (3-(4,5-dimethylthiazol-2-yl)-2,5-diphenyltetrazolium bromide) reagent (MTT, 5 mg/mL) was added. After 2–4 h of incubation, the media was aspirated and the plates were dried. Then, 50 μL/well of DMSO was added to each well and the cell viability was measured using an Infinite F200PRO reader (TECAN, Männedorf, Switzerland). Results were calculated using the GraphPad Prism software v.9.1.1 (GraphPad Software, San Diego, CA, USA) and are represented as IC50 of the compounds calculated using the cells treated with the solvent alone as a control.

22Rv1 cells [1] = assay: Trypan blue-based viability assay; type: cell-based, human; conditions: 48 h of treatment, mean ± SD, read-out: IC50, trypan blue staining assay
Method: The effect of the drugs on cell viability in terms of cellular membrane integrity was evaluated by the trypan blue exclusion assay as described before. In brief, cells (0.2 × 10^6 cells/well) were seeded in 6-well plates and incubated overnight, and the media was replaced with fresh media (1 mL/well) containing drugs at indicated concentrations. After treatment for 48 h, the cells were harvested by trypsinization, stained with trypan blue and the viability was measured using an automatic Beckman Coulter Vi-CELL (Beckman Coulter, Krefeld, Germany). Trypan blue-positive cells were assumed to have damaged cellular membrane (i.e., dead), whereas trypan blue-negative cells were considered to have an intact cellular membrane (i.e., alive).

MRC-9 cells = assay: MTT assay, MRC-9 cells; type: cell-based, human; conditions: non-cancer cells, 48 h of treatment, mean ± SD
Method: as §1, §2, §3

LNCaP cells = assay: MTT assay, LNCaP cells; type: cell-based, human; conditions: prostate cancer cells, 48 h of treatment, mean ± SD
Method: as §1, §2, §3

22Rv1 cells [2] = assay: MTT assay, 22Rv1 cells; type: cell-based, human; conditions: prostate cancer cells, 48 h of treatment, mean ± SD
Method: as §1, §2, §3

[3] = system: prostate cancer cell lines (PC-3, 22Rv1, DU145 and LNCaP); assay: MTT assay, mean over four prostate cancer cell lines; type: cell-based; conditions: Homo sapiens; mean of MTT IC50 in PC-3, 22Rv1, DU145 and LNCaP; from Table S1 values; read-out: mean IC50 in cancer cells
Method: as §3, with “Next, SAR analysis was performed to identify the structural elements that are beneficial for anticancer activity of the fascaplysin-related molecules. Considering the complex and heterogeneous nature of tumors even within the same patient, we used calculated mean IC50 values of each drug in all prostate cancer cells for further analysis (Figure 2A). To identify the drug candidates with the highest therapeutic potential, the selectivity index (SI) was calculated as mean IC50 in non-cancer cells versus mean IC50 in cancer cells (Figure 2B), or as a mean IC50 in non-cancer (MRC-9 and HEK293) cells versus mean IC50 in prostate cells (cancer PC-3, 22Rv1, DU145, LNCaP and non-cancer PNT2 cells) (Figure 2C). Finally, to estimate the effects on cellular metabolism, we compared the activity evaluated by using trypan blue assay versus MTT assay (Figure 2D). Effect” for “Effect”, “2-4” for “2–4”, “F200PRO” left out

HEK-293 cells = assay: MTT assay, HEK-293 cells; type: cell-based, human; conditions: non-cancer cells, 48 h of treatment, mean ± SD
Method: as §1, §2, §3

PNT2 cells = assay: MTT assay, PNT2 cells; type: cell-based, human; conditions: non-cancer cells, 48 h of treatment, mean ± SD
Method: as §1, §2, §3

PC-3 cells = assay: MTT assay, PC-3 cells; type: cell-based, human; conditions: prostate cancer cells, 48 h of treatment, mean ± SD
Method: as §1, §2, §3

[4] = system: non-cancer cell lines versus cancer cell lines; assay: Selectivity index from MTT IC50s; type: cell-based, human; conditions: MTT; for Selectivity index, IC50 (non-prostate) / IC50 (prostate): mean IC50 MRC-9 and HEK-293 versus mean IC50 prostate cancer cell lines plus PNT2; for Selectivity index, IC50 (non-cancer) / IC50 (cancer): mean IC50 non-cancer cell lines versus mean IC50 cancer cell lines
Method: as §3, with “Next, SAR analysis was performed to identify the structural elements that are beneficial for anticancer activity of the fascaplysin-related molecules. Considering the complex and heterogeneous nature of tumors even within the same patient, we used calculated mean IC50 values of each drug in all prostate cancer cells for further analysis (Figure 2A). To identify the drug candidates with the highest therapeutic potential, the selectivity index (SI) was calculated as mean IC50 in non-cancer cells versus mean IC50 in cancer cells (Figure 2B), or as a mean IC50 in non-cancer (MRC-9 and HEK293) cells versus mean IC50 in prostate cells (cancer PC-3, 22Rv1, DU145, LNCaP and non-cancer PNT2 cells) (Figure 2C). Finally, to estimate the effects on cellular metabolism, we compared the activity evaluated by using trypan blue assay versus MTT assay (Figure 2D). Effect” for “Effect”, “2-4” for “2–4”, “F200PRO” left out

22Rv1 cells [5] = assay: DNA fragmentation (apoptosis, sub-G1), flow cytometry with PI staining; type: cell-based, human; conditions: treated at IC50 (MTT assay) for 48 h, mean ± SD
Method: The effects on cell cycle progression and DNA fragmentation were analyzed by flow cytometry using PI staining, as described before. Cells (2 × 10^5 cells/well) were pre-incubated overnight in 6-well plates and then treated with the investigated drugs in fresh culture media (2 mL/well) for 48 h. Cells were harvested by trypsinization, fixed in 70% EtOH, stained with PI solution and analyzed by FACS Calibur (BD Bioscience, San Jose, CA, USA). The results were quantified using BD Bioscience Cell Quest Pro v.5.2.1. software (BD Bioscience). The cells appearing as a sub-G1 population (containing fragmented DNA) were considered to be apoptotic.

| Structure (SMILES) | IC50 (DU145 cells; Homo sapiens, DU-145) [µM] | IC50 (22Rv1 cells [1]; Homo sapiens) [µM] | IC50 (MRC-9 cells; Homo sapiens, MRC9) [µM] | IC50 (LNCaP cells; Homo sapiens, LNCaP) [µM] | IC50 (22Rv1 cells [2]; Homo sapiens, 22Rv1) [µM] | IC50 [3] [µM] | IC50 (HEK-293 cells; Homo sapiens, HEK293) [µM] | IC50 (PNT2 cells; Homo sapiens, PNT2) [µM] | IC50 (PC-3 cells; Homo sapiens, PC-3) [µM] | Selectivity index, IC50 (non-prostate) / IC50 (prostate) [4] | Selectivity index, IC50 (non-cancer) / IC50 (cancer) [4] | % of sub-G1 apoptotic cells (at IC50) (22Rv1 cells [5]) [%] | IC50 (DU145 cells) [µM] | IC50 (22Rv1 cells [1]) [µM] | IC50 (MRC-9 cells) [µM] | IC50 (LNCaP cells) [µM] | IC50 (22Rv1 cells [2]) [µM] | IC50 (HEK-293 cells) [µM] | IC50 (PNT2 cells) [µM] | IC50 (PC-3 cells) [µM] |
| --- | --- | --- | --- | --- | --- | --- | --- | --- | --- | --- | --- | --- | --- | --- | --- | --- | --- | --- | --- | --- |
| O=C1c2ccc(Br)cc2-[n+]2ccc3c([nH]c4ccc(Br)cc43)c21.[Cl-] [Compound 15, 12,13-dihydro-3,9-dibromo-13-oxopyrido[1,2-a:3,4-b’]diindol-5-ium chloride] | 0.616 ± 0.094 | 2.85 ± 0.487 | 12.6 ± 6.94 | 2.6 ± 0.367 | 2.24 ± 0.811 | 2.1 | 0.275 ± 0.021 | 0.643 ± 0.049 | 2.95 ± 0.23 | 3.56 | 2.15 | 8.63±0.71 | – | – | – | – | – | – | – | – |
| Cc1c[n+]2c(c3[nH]c4ccccc4c13)C(=O)c1ccccc1-2.[Cl-] [Compound 18, 12,13-dihydro-7-methyl-13-oxopyrido[1,2-a:3,4-b’]diindol-5-ium chloride] | 1.79 ± 0.478 | 0.472 ± 0.185 | 1.18 ± 0.096 | 0.803 ± 0.08 | 0.79 ± 0.038 | 1.11 | 0.59 ± 0.085 | 0.956 ± 0.092 | 1.07 ± 0.55 | 0.82 | 0.82 | 23.1±3.42 | – | – | – | – | – | – | – | – |
| O=C1c2cc(Br)ccc2-[n+]2ccc3c([nH]c4ccc(I)cc43)c21.[Cl-] [Compound 11, 12,13-dihydro-2-bromo-9-iodo-13-oxopyrido[1,2-a:3,4-b’]diindol-5-ium chloride] | 1.35 ± 0.318 | 1.33 ± 0.277 | 31.9 ± 7.07 | 1.17 ± 0.084 | 2.33 ± 0.87 | 2 | 0.48 ± 0.052 | 0.86 ± 0.072 | 3.14 ± 0.98 | 9.15 | 5.55 | 13.1±2.86 | – | – | – | – | – | – | – | – |
| O=C1c2cc(Br)ccc2-[n+]2ccc3c([nH]c4ccc(Br)cc43)c21.[Cl-] [Compound 10, 12,13-dihydro-2,9-dibromo-13-oxopyrido[1,2-a:3,4-b’]diindol-5-ium chloride] | 0.913 ± 0.116 | 0.215 ± 0.036 | 4.96 ± 0.386 | 1.13 ± 0.803 | 0.49 ± 0.039 | 1.09 | 0.25 ± 0.034 | 0.614 ± 0.098 | 1.83 ± 0.1 | 2.62 | 1.78 | 24.0±5.37 | – | – | – | – | – | – | – | – |
| N.N.[Cl][Pt][Cl] [Cis, Cisplatin, reference compound] | – | – | – | – | – | – | – | – | – | 0.92 | 1.23 | 14.7±3.43 | 1.32 ± 0.53 | 0.19 ± 0.044 | 6.75 ± 1.99 | 2.75 ± 0.55 | 0.99 ± 0.29 | 6.44 ± 1.77 | 9.41 ± 3.12 | 34.6 |
| O=C1c2cc(Br)ccc2-[n+]2ccc3c([nH]c4c(Br)cc(Br)cc43)c21.[Cl-] [Compound 13, 12,13-dihydro-2,9,11-tribromo-13-oxopyrido[1,2-a:3,4-b’]diindol-5-ium chloride] | 13.2 ± 4.44 | 4.48 ± 1.65 | 30 ± 5.8 | 7.63 ± 0.74 | 3.98 ± 0.3 | 7.69 | 2.25 ± 0.99 | 4.38 ± 0.674 | 5.94 ± 0.86 | 2.29 | 1.59 | 27.6±7.52 | – | – | – | – | – | – | – | – |
